Measured values taken from patent publication US20240108654A1, “COMBINATION OF A T CELL THERAPY AND A DGK INHIBITOR” (Juno Therapeutics, Inc., priority 2021, published 2024).
pEC50, pIC50: −log10 of the molar value. Read-outs that look alike come from different tables or passages of the source.

What was measured:
[1] = tested on: Human venous whole blood; experiment: Human whole blood IFN-γ assay; type: cell-based; settings: anti-CD3 and anti-CD28 1 μg/mL each, 3 μM reference compound as 100% activation, read-out: INFg Whole Blood Normalized Agonist EC50
Experimental: Human venous whole blood (22.5 μL per well), obtained from healthy donors, was pre-treated with compounds for one hour at 37° C. in a humidified 95% air/5% CO2 incubator. The blood was stimulated with 2.5 μL anti-human CD3 and anti-CD28 mAb at a final concentration of 1 μg/mL each for 24 hours at 37° C. IFN-γ in the supernatants was measured using ALphLISA kit (Cat #AL217).

[2] = target: human DGKζ (Homo sapiens (Human), UniProt Q13574); experiment: DGKζ liposome (LIPGLO) in vitro DGK inhibition assay; type: biochemical; settings: extruded liposome substrate; 150 μM ATP; 5 nM enzyme; read-out: DGKz LIPGLO IC50
Experimental: The DGKα and DGKζ reactions were performed using either extruded liposome (DGKα and DGKζ LIPGLO assays) or detergent/lipid micelle substrate (DGKα and DGKζ assays). The reactions were carried out in 50 mM MOPS pH 7.5, 100 mM NaCl, 10 mM MgCl2, 1 μM CaCl2), and 1 mM DTT (assay buffer). The reactions using a detergent/lipid micelle substrate also contained 50 mM octyl B-D-glucopyranoside. The lipid substrate concentrations were 11 mM PS and 1 mM DAG for the detergent/lipid micelle reactions. The lipid substrate concentrations were 2 mM PS, 0.25 mM DAG, and 2.75 mM PC for the extruded liposome reactions. The reactions were carried out in 150 μM ATP. The enzyme concentrations for the DGKα and DGKζ were 5 nM.
The compound inhibition studies were carried out as follows: 50 nL droplets of each test compound (top concentration 10 mM with 11 point, 3-fold dilution series for each compound) solubilized in DMSO were transferred to wells of a white 1536 well plate (Corning 3725). A 5 mL enzyme/substrate solution at 2× final reaction concentration was prepared by combining 2.5 mL 4× enzyme solution (20 nM DGKα or DGKζ (prepared as described below) in assay buffer) and 2.5 mL of either 4× liposome or 4× detergent/lipid micelle solution (compositions described below) and incubated at room temperature for 10 minutes. Next, 1 μL 2× enzyme/substrate solution was added to wells containing the test compound and reactions were initiated with the addition of 1 μL 300 uM ATP. The reactions were allowed to proceed for 1 hr, after which 2 μL Glo Reagent (Promega V9101) was added and incubated for 40 minutes. Next, 4 μL Kinase Detection Reagent was added and incubated for 30 minutes. Luminescence was recorded using an EnVision microplate reader. […] The compounds were evaluated at 11 concentrations to determine IC50.
The lipid composition was 5 mol % DAG (Avanti 8008110), 40 mol % PS (Avanti 840035P), and 55 mol % PC (Avanti 850457) at a total lipid concentration of 15.2 mg/mL for the 4× liposome solution. The PC, DAG, and PS were dissolved in chloroform, combined, and dried in vacuo to a thin film. The lipids were hydrated to 20 mM in 50 mM MOPS pH 7.5, 100 mM NaCl, 5 mM MgCl2, and were freeze-thawed five times. The lipid suspension was extruded through a 100 nm polycarbonate filter eleven times. Dynamic light scattering was carried out to confirm liposome size (50-60 nm radius). The liposome preparation was stored at 4° C. for as long as four weeks.
Human DGK-alpha-TVMV-His-pFBgate and human DGK-zeta-transcript variant-2-TVMV-His-pFBgate baculovirus samples were generated using the Bac-to-Bac baculovirus expression system (Invitrogen) according to the manufacturer's protocol. The DNA used for expression of DGK-alpha and DGK-zeta have SEQ ID NOs: 251 and 252, respectively. Baculovirus amplification was achieved using infected Sf9 cells at 1:1500 virus/cell ratios, and grown for 65 hours at 27° C. post-transfection.
The expression scale up for each protein was carried out in the Cellbag 50 L WAVE-Bioreactor System 20/50 from GE Healthcare Bioscience. 12 L of 2×10^6 cells/mL Sf9 cells (Expression System, Davis, CA) grown in ESF921 insect medium (Expression System) were infected with virus stock at 1:200 virus/cell ratios, and grown for 66-68 hours at 27° C. post-infection. The infected cell culture was harvested by centrifugation at 2000 rpm for 20 min 4° C. in a SORVALL® RC12BP centrifuge. The cell pellets were stored at −70° C. until purification. […]

[3] = target: human DGKα (Homo sapiens (Human), UniProt P23743); experiment: DGKα liposome (LIPGLO) in vitro DGK inhibition assay; type: biochemical; settings: extruded liposome substrate; 150 μM ATP; 5 nM enzyme; read-out: DGKa LIPGLO IC50
Experimental: The DGKα and DGKζ reactions were performed using either extruded liposome (DGKα and DGKζ LIPGLO assays) or detergent/lipid micelle substrate (DGKα and DGKζ assays). The reactions were carried out in 50 mM MOPS pH 7.5, 100 mM NaCl, 10 mM MgCl2, 1 μM CaCl2), and 1 mM DTT (assay buffer). The reactions using a detergent/lipid micelle substrate also contained 50 mM octyl B-D-glucopyranoside. The lipid substrate concentrations were 11 mM PS and 1 mM DAG for the detergent/lipid micelle reactions. […] The enzyme concentrations for the DGKα and DGKζ were 5 nM.

[4] = tested on: OT-1 antigen-specific CD8+ T cells with SIINFEKL-loaded MC38 tumor cells; experiment: Murine cytotoxic T lymphocyte (CTL) assay, IFN-γ readout; type: cell-based, mouse; settings: IFN-γ in supernatant after 24 hours, AlphaLisa; read-out: msCTL INFg IC50
Text: An antigen-specific cytolytic T-cell (CTL) assay was developed to evaluate functionally the ability of DGKα and DGKζ inhibitors to enhance effector T cell mediated tumor cell killing activity. CD8+ T-cells isolated from the OT-1 transgenic mouse recognize antigen presenting cells, MC38, that present the ovalbumin derived peptide […]. Recognition of the cognate antigen initiates the cytolytic activity of the OT-1 antigen-specific CD8+ T cells.
Functional CTL cells were generated as follows: OT-1 splenocytes from 8-12 week old mice were isolated and expanded in the presence of the […] peptide at 1 μg/mL and mIL2 at 10 U/mL. After three days, fresh media with […] was added. On day 5 of the expansion, the CD8+ T cells were isolated and ready for use. Activated CTL cells may be stored frozen for 6 months. Separately, one million MC38 tumor cells were pulsed with 1 μg/mL of […]-OVA peptide for 3 hours at 37° C. The cells were washed (3×) with fresh media to remove excess peptide. Finally, CTL cells that were pretreated with DGK inhibitors for 1 hour in a 96-well U bottom plate were combined with the antigen loaded MC38 tumor cells at a 1:10 ratio. The cells were then spun at 700 rpm for 5 min and placed in an incubator overnight at 37° C. After 24 hours, the supernatant was collected for analysis of IFN-γ cytokine levels by AlphaLisa purchased from Perkin Elmer.

[5] = tested on: naïve human CD8 T cells; experiment: Human CD8 T cells IFN-γ assay; type: cell-based; settings: anti-CD3 plus anti-CD28 as baseline, 3 μM reference compound as 100% activation, 20 h, read-out: HuCD8 INFG Normalized EC50
Experimental: Frozen naïve human CD8 T cells were thawed in AIM-V media, incubated for 2 h in 37° C., and counted. The 384-well tissue culture plate was coated overnight at 4° C. with 20 μL anti-human CD3 at 0.05 μg/mL in PBS, which was removed off the plate before 40,000 cells per 40 microliters CD8 T cells with 0.1 μg/mL soluble anti-human CD28 were added to each well. The compounds were transferred using an Echo liquid handler to the cell plate immediately after the cells were plated. After 20 h incubation at 37° C. incubator, 3 microliters per well supernatants transferred into anew 384-well white assay plate for cytokine measurement.
Interferon-γ (IFN-γ) was quantitated using the AlphLISA kit (Cat #AL217) as described by the manufacturer manual (Perkin Elmer). The counts from each well were converted to IFN-γ concentration (pg/mL).

human DGKζ, sequence (Q13574 other isoform, or with tags, fused parts or gaps isoform Q13574-4): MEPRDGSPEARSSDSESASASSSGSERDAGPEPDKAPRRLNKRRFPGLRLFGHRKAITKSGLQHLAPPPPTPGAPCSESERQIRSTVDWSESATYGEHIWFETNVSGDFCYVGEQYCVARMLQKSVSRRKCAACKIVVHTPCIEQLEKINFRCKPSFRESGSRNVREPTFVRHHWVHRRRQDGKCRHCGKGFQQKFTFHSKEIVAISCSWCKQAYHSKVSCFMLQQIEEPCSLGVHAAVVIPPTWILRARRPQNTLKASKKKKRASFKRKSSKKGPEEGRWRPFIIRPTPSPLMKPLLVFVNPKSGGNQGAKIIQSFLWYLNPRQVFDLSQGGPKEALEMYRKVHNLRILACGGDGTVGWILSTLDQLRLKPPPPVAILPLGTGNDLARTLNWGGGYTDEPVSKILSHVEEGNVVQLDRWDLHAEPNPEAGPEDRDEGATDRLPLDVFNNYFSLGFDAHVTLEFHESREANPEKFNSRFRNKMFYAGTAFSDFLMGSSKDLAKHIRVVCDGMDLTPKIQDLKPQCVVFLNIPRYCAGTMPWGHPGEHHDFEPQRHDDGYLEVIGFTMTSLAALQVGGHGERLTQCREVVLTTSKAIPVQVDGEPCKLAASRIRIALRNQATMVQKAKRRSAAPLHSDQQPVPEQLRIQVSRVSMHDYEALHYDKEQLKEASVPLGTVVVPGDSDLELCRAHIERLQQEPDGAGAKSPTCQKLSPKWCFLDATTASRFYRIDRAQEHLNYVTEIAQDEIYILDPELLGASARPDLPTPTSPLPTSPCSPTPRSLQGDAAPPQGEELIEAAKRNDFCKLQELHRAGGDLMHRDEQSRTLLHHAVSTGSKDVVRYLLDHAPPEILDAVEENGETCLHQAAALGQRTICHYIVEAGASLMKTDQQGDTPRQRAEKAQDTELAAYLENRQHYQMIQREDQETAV
human DGKα, sequence (P23743 other isoform, or with tags, fused parts or gaps): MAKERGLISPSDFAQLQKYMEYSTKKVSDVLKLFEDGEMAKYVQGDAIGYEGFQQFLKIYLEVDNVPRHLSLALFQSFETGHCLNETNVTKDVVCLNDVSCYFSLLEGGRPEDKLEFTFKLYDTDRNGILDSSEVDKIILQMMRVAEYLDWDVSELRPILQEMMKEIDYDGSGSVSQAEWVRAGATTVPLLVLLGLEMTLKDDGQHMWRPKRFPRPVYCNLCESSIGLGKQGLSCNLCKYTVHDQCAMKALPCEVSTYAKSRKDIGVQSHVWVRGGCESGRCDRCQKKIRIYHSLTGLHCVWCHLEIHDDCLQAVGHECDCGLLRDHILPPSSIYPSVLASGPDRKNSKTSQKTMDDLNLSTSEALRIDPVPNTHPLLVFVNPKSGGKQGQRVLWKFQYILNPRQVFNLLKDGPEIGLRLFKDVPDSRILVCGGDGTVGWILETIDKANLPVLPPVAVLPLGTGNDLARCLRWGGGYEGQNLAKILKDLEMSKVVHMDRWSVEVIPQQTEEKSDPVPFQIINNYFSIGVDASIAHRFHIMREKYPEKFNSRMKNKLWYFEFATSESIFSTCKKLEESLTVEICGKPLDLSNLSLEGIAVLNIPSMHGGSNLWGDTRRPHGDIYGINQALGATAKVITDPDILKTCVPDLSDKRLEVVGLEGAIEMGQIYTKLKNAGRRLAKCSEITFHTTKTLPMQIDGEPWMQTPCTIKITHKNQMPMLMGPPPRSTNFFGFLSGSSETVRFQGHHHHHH

| SMILES | pEC50 ([1]; 24 hours) | pIC50 [2] | pIC50 [3] | also measured |
| --- | --- | --- | --- | --- |
| CC[C@@H]1CN(c2nc(=O)n(C)c3ccc(C#N)nc23)[C@@H](C)CN1C(c1ccc(Cl)cc1)c1ccccn1 (single isomer, unassigned) [Compound 23] | 4.98 | – | – | – |
| CCC(c1ccc(C(F)(F)F)cc1)N1C[C@H](CC)N(c2nc(=O)n(C)c3ccc(C#N)nc23)C[C@H]1CC (stereo partly drawn) [Compound 18, 4-((2S,5R)-2,5-Diethyl-4-(1-(4-(trifluoromethyl)phenyl)propyl)piperazin-1-yl)-1-methyl-2-oxo-1,2-dihydropyrido[3,2-d]pyrimidine-6-carbonitrile] | 5.43 | – | – | – |
| CCC1CN(C(c2ccc(F)cc2)c2nc(C3CC3)no2)C(CC)CN1c1nc(=O)n(C)c2ccc(C#N)nc12 (single isomer, unassigned) [Compound 25] | 7.82 | 7.54 | 7.17 | – |
| C[C@@H]1CN(c2cc(=O)n(C)c3ccc(C#N)nc23)[C@@H](C)CN1C(c1ccccc1)c1ccc(F)cc1 (single isomer, unassigned) [Compound 7] | 6.24 | – | – | pIC50 [4]: 7.19; pEC50 [5]: 7.33 |
| CC[C@@H]1CN(c2nc(=O)n(C)c3ccc(C#N)nc23)[C@@H](C)CN1C(c1ccc(F)cc1)c1ccc(C(F)(F)F)cn1 (stereo partly drawn) [Compound 21, 4-((2S,5R)-5-Ethyl-4-((4-fluorophenyl)(5-(trifluoromethyl)pyridin-2-yl)methyl)-2-methylpiperazin-1-yl)-1-methyl-2-oxo-1,2-dihydropyrido[3,2-d]pyrimidine-6-carbonitrile] | – | – | – | pEC50 ([1]; Homo sapiens, 24 h): 7.37 |
| CC[C@@H]1CN(c2nc(=O)n(C)c3ccc(C#N)nc23)[C@@H](C)CN1C(C)c1ccc(C(F)(F)F)cc1 (single isomer, unassigned) [Compound 20] | 7.49 | – | – | – |
| CC[C@@H]1CN(c2nc(=O)n(C)c3ccc(C#N)nc23)[C@@H](C)CN1C(C)c1ccc(C(F)(F)F)cc1 (single isomer, unassigned) [Compound 19] | 6.28 | – | – | – |
| C[C@@H]1CN(c2cc(=O)n(C)c3ccc(C#N)nc23)[C@@H](C)CN1C(c1ccccc1)c1ccc(F)cc1 (stereo partly drawn) [Compound 5, 8-[(2S,5R)-4-[(4-fluorophenyl)(phenyl)methyl]-2,5-dimethylpiperazin-1-yl]-5-methyl-6-oxo-5,6-dihydro-1,5-naphthyridine-2-carbonitrile] | – | 5.80 | 6.06 | – |
| CCC1CN(C(c2ccc(F)cc2)c2nc(C3CC3)no2)C(CC)CN1c1nc(=O)n(C)c2ccc(C#N)nc12 (single isomer, unassigned) [Compound 26] | 7.05 | 7.48 | 7.85 | – |
| Cc1ccc(C(c2ccc(F)cc2)N2C[C@H](C)N(c3cc(=O)n(C)c4ccc(C#N)nc34)C[C@H]2C)cc1 (stereo partly drawn) [Compound 10, 8-[(2S,5R)-4-[(4-fluorophenyl)(4-methylphenyl)methyl]-2,5-dimethylpiperazin-1-yl]-5-methyl-6-oxo-5,6-dihydro-1,5-naphthyridine-2-carbonitrile] | – | 6.49 | 6.17 | pEC50 ([5]; Homo sapiens, T-cell): 7.64; pEC50 ([1]; Homo sapiens, 24 h): 6.36 |
| CC[C@@H]1CN(c2nc(=O)n(C)c3ccc(C#N)nc23)[C@@H](C)CN1C(c1ccc(Cl)cc1)c1ccccn1 (single isomer, unassigned) [Compound 24] | 6.70 | – | – | – |
| CC[C@@H]1CN(c2nc(=O)n(C)c3ccc(C#N)nc23)[C@@H](C)CN1C(c1ccc(F)cc1)c1ccc(C(F)(F)F)cn1 (single isomer, unassigned) [Compound 22] | – | – | – | pEC50 ([1]; Homo sapiens, 24 h): 7.70 |
| CCC(c1ccc(F)cc1F)N1C[C@H](C)N(c2cc(=O)n(C)c3ccc(C#N)nc23)C[C@H]1C (mixture of isomers) [Compound 12, 8-((2S,5R)-4-(1-(2,4-difluorophenyl)propyl)-2,5-dimethylpiperazin-1-yl)-5-methyl-6-oxo-5,6-dihydro-1,5-naphthyridine-2-carbonitrile] | – | 6.34 | 6.24 | – |
